# Laboratory results reported in article PMC4974627 (Biochemistry, 2016).
# Columns and labels:
# [1] = target: AtGSNOR (Arabidopsis GSNOR) (Arabidopsis thaliana, UniProt Q96533, C370A); experiment: intact protein mass spectrometry; assay type: binding; settings: covalent (S-nitrosation)
# [2] = target: T1, AtGSNOR (Arabidopsis GSNOR) (Arabidopsis thaliana, UniProt Q96533); experiment: residual GSNO reductase activity after CysNO incubation; assay type: biochemical; settings: covalent (S-nitrosation of Cys10, Cys271, Cys370), reversible by DTT; one hour
# [3] = target: AtGSNOR (Arabidopsis GSNOR) (Arabidopsis thaliana, UniProt Q96533, C271A); experiment: intact protein mass spectrometry; assay type: binding; settings: covalent (S-nitrosation)
# [4] = target: ScSFA1 (yeast GSNOR, Sensitive to Formaldehyde 1) (Saccharomyces cerevisiae, UniProt P32771, C12A); experiment: residual activity after CysNO versus CysSH treatment; assay type: biochemical; settings: covalent (S-nitrosation); 2 mM CysNO
# [5] = target: T1, AtGSNOR (Arabidopsis GSNOR); experiment: time-dependent loss of activity on GSNO incubation; assay type: biochemical; settings: covalent (presumed S-nitrosation); 1 mM GSNO, 20 µM protein
# T1 sequence (Q96533 2-379): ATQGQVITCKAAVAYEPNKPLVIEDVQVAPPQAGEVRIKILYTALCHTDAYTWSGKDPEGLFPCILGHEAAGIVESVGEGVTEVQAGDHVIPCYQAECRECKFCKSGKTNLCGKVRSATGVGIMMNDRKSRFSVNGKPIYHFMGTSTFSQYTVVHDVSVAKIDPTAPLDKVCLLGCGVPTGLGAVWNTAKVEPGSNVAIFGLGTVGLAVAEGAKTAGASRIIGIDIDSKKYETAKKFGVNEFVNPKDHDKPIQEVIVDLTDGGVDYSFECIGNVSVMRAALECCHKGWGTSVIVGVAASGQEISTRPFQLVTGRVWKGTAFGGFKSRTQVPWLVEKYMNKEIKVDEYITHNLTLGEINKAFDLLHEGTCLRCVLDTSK
# Chain of ScSFA1 (yeast GSNOR, Sensitive to Formaldehyde 1) (P32771 whole entry C12A): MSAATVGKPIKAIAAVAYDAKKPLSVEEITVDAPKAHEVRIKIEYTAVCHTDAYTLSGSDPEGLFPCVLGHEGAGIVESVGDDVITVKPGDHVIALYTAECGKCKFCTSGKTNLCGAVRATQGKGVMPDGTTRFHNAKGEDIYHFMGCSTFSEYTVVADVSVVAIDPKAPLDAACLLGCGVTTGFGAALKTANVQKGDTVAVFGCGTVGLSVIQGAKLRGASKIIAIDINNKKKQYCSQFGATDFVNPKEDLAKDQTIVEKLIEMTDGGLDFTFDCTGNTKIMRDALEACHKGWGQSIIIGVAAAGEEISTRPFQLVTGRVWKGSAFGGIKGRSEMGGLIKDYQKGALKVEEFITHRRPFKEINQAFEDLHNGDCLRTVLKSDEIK
# Chain of AtGSNOR (Arabidopsis GSNOR) (Arabidopsis thaliana, UniProt Q96533, C271A) (Q96533 2-379 C271A): as the sequence (Q96533 2-379) above, with C270A counted along it
# Chain of AtGSNOR (Arabidopsis GSNOR) (Arabidopsis thaliana, UniProt Q96533, C370A) (Q96533 2-379 C370A): as the sequence (Q96533 2-379) above, with C369A counted along it
% decrease in activity at 125 μM [2],Compound,intact protein mass spectrometry (+29 Da adducts) [1],intact protein mass spectrometry (+29 Da adducts) [3],residual activity after CysNO versus CysSH treatment [4],time-dependent loss of activity on GSNO incubation [5]
~ 40%,N[C@@H](CSN=O)C(=O)O [CysNO],"only two adducts were observed for single cysteine mutants (Fig. 2F, H, J)","only two adducts were observed for single cysteine mutants (Fig. 2F, H, J)",ScSFA1^C12A and HsGSNOR^C8A were as sensitive to nitrosation as their corresponding wild-types,
,N[C@@H](CCC(=O)N[C@@H](CSN=O)C(=O)NCC(=O)O)C(=O)O [GSNO],,,,Incubation with GSNO caused a time-dependent decrease in the specific activity of unmodified AtGSNOR
